For data set [1], the system named is rats. In kind it is in vivo, rat. The conditions noted are these: for recovery time of the test animals' righting reflex: rats of the MAP/HR figures, 2×ED50, tail vein, same value in min. As for the experimental part: The Effects of the Compounds on the Circulatory Function were Measured in Rats Using a Small Animal Implanted Physiological Signal Telemetry System
The anesthetic activity of the compounds was assessed in rats using a LORR assay and the up and down method was used to determine ED50. […] A small animal implantable physiological signal telemetry system from DSI (Data Science International, Inc.) was used to measure the changes in heart rate (HR) and blood pressure in rats during 30 min after administration. Then mean arterial pressure (MAP) and HR were used as representative indicators to determine hemodynamic stability of the compounds of the present invention in rats.
A small animal implantable physiological signal telemetry system from DSI (Data Science International, Inc.) including implants (RATHD-521, DSI, United States), receiver boards (RPC-1, DSI, United States), signal conversion devices (DEM, DSI, USA), perfusion glue (DSI, USA), fibrin membrane (DSI, USA), etc.
First, animal models were established. A left ventricular catheter, an abdominal aortic catheter and ECG wires were placed into rats. At least one week after surgery, data were recorded.
Administration procedure: rats were put into a restraint device with a 20 G indwelling catheter placed into a lateral tail vein. After administration of 0.2 mL heparin, a pre-filled extension tube was attached and taped to the tail vein to secure the extension tube. Then the rats were removed from the restraint device to a cage before placing them together on the signal receiver. […] Finally, the pharmacological effects, adverse reactions, and behavioural manifestations of the rats were observed and recorded
Data collection: After setting the data collection parameters on the software, the power of the implant was turned on to start data collection. In this experiment, data recording frequency was set to 15 s. Data collection was continuously recorded for 30 min before and after administration of the drugs in rats. After data acquisition, the test was stopped.

The test system of data set [2] is rats. The conditions noted are these: for Recovery time after stopping infusion: after 1 hour infusion at 2×MIR; for Adverse reactions: Tremor (incidence): continuous infusion 2×MIR; for Onset time: emulsion, continuous infusion at 2×MIR. How it is done: Pharmacological Effects of the Compounds on Continuous Infusion in Rats
Adult male Sprague-Dawley rats with body weight ranging from 250 to 300 gm were selected for continuous infusion test. […] Time to recovery of righting reflex from stopping infusion, and time to fully awake from stopping infusion were recorded.

Data set [3] has as its system rats. In kind it is in vivo, rat. To be noted: rats of the MAP/HR figures, 2×ED50, tail vein.
The subject of data set [4] is secretion of corticosterone, H295R cell line. Briefly: cells. In kind it is cell-based. The conditions noted are these: for EC50: Homo sapiens, NCI-H295R, read-out: EC50 (Corticosterone). How it is done:
(§1) The Effects of the Compounds on Adrenocortical Function In Vitro Test
(§2) Then secretion of the cortisol and corticosterone in the supernatant, was measured using HPLC-MS/MS method to determine whether the compounds of the present invention had adrenotoxic potential.

Data set [5] deals with secretion of cortisol, H295R cell line. Briefly: cells. In kind it is cell-based. The conditions noted are these: for EC50: Homo sapiens, NCI-H295R, read-out: EC50 (Cortisol). As for the experimental part: as §1, §2
Setting [6] is: H295R cell line, 0.1-10000 nM, HPLC-MS/MS, Table D3.
Where [7] appears, read: H295R cell line, 0.1-10000 nM, HPLC-MS/MS, Table E3.

Molecules are shown by their SMILES. Where two headings read alike, the source gives them in different places.

Consider `C[C@H](c1ccccc1)n1cncc1C(=O)OCC1(CO)CC1` [Compound A7], for which the “recovery time of the test animals' righting reflex” value with rats [1] is reported as 1.83 min. Further, in the data set on rats [2], the “Recovery time after stopping infusion” value fell in the range of 7 to 9 min, the “Adverse reactions: Tremor (incidence)” value was “Tremor (4/6)” and the “Onset time” value was 2 to 3 min. Further, the “recovery time of the test animals' righting reflex” value with rats [3] worked out at 110 s.

In the case of `C[C@H](c1ccccc1)n1cncc1C(=O)OCC1CC1` [Compound A15], in the data set on rats [1], the “recovery time of the test animals' righting reflex” value was 3.22 min. In addition, in the data set with rats [2], the “Recovery time after stopping infusion” value was in the range of 12 to 15 min, the “Adverse reactions: Tremor (incidence)” value is listed as “Tremor (5/6)” and the “Onset time” value is 2 to 3 min. Moreover, in the data set with rats [3], the “recovery time of the test animals' righting reflex” value is on record as 193 s.

`C[C@H](c1ccccc1)n1cncc1C(=O)SCC1CCC1` [Compound A27]: the “recovery time of the test animals' righting reflex” value in the data set on rats [1] turned out to be 2.10 min; in the data set on rats [3], 126 s.

With `COCC1(CSC(=O)c2cncn2[C@H](C)c2ccccc2)CCC1` [Compound A28], the “Corticosterone as an indicator to determine the presence of inhibition” value (from here on “Corticosterone as an indicator … of inhibition”) in data set [4] (H295R, Table A3) was found to be 0. Besides, the EC50 in data set [4] and in data set [5] was over 1 µM each time. Further, the “Cortisol as an indicator to determine the presence of inhibition” value (shortened to “Cortisol as an indicator … of inhibition”) in data set [5] (H295R, Table A3) stood at 0. Besides, the entries for the “recovery time of the test animals' righting reflex” value in the data set with rats [1] and in the data set with rats [3] were 7.25 min and 435 s, respectively.

Regarding `C[C@H](c1ccccc1)n1cncc1C(=O)SC1CCC1` [Compound A29], the figures for the “recovery time of the test animals' righting reflex” value with rats [1] and with rats [3] were 4.25 min and 255 s, respectively.

On to `C[C@H](c1ccccc1)n1cncc1C(=O)SCC1CC(F)(F)C1` [Compound A45], for which the “recovery time of the test animals' righting reflex” value in the data set on rats [1] came to 3.33 min; with rats [3], 200 s.

As for `CSCC1(CSC(=O)c2cncn2[C@H](C)c2ccccc2)CCC1` [Compound A46], the “Corticosterone as an indicator … of inhibition” value in data set [4] (H295R, Table A3) came out at 0. In addition, the EC50 in data set [4] and in data set [5] was over 0.1 µM each time. In data set [5] (H295R, Table A3), the “Cortisol as an indicator … of inhibition” value is 0.

For `C[C@H](c1ccccc1)n1cncc1C(=O)OC(C)(C)C1OC1(C)C` (stereo partly drawn) [Compound B25], in data set [4] (H295R, Table B3), the “Corticosterone as an indicator … of inhibition” value is reported as 0. In addition, the “Cortisol as an indicator … of inhibition” value in data set [5] (H295R, Table B3) stood at 0. Moreover, in data set [5], the concentration for a half-maximal effect (EC50) (in general, the midpoint of the concentration-response curve) was over 1 µM.

As for `CC(=O)C1(OC(=O)c2cncn2[C@H](C)c2ccccc2)CCC1` [Compound C2], the “recovery time of the test animals' righting reflex” value came out at 3.03 min in the data set on rats [1] and 182 s in the data set on rats [3].

Consider `CC(=O)C1(COC(=O)c2cncn2[C@H](C)c2ccccc2)CC1` [Compound C4], for which the “Corticosterone as an indicator … of inhibition” value in data set [4] (H295R, Table C3) turned out to be 0. Besides, the half-maximal effective concentration (EC50) in data set [4] and in data set [5] was over 1 µM each time. Besides, the “Cortisol as an indicator … of inhibition” value in data set [5] (H295R, Table C3) stood at 0.

As to `CC(=O)C1(COC(=O)c2cncn2[C@H](C)c2ccccc2)COC1` [Compound C5], the “Corticosterone as an indicator … of inhibition” value in data set [4] (H295R, Table C3) came to 0. Also, the concentration giving a half-maximal response (EC50) in data set [4] and in data set [5] was over 1 µM each time. For the same molecule, the “Cortisol as an indicator … of inhibition” value in data set [5] (H295R, Table C3) worked out at 0.

Regarding `CC(=O)COC(=O)c1cncn1[C@H](C)c1ccccc1` [Compound C6], the “recovery time of the test animals' righting reflex” value in the data set on rats [1] is recorded as 2.0 min; in the data set on rats [3], 120 s.

As for `CC(=O)C(C)(C)OC(=O)c1cncn1[C@H](C)c1ccccc1` [Compound C8], the entries for the “recovery time of the test animals' righting reflex” value in the data set with rats [1] and in the data set with rats [3] were 2.83 min and 170 s, respectively.

In the case of `C[C@H](c1ccccc1)n1cncc1C(=O)OC[S+](C)[O-]` (stereo partly drawn) [Compound C9], the “Corticosterone as an indicator … of inhibition” value in data set [4] (H295R, Table C3) was 0. For the same molecule, the half-maximal effective concentration (EC50) in data set [4] and in data set [5] was over 10 µM throughout. The “Cortisol as an indicator … of inhibition” value in data set [5] (H295R, Table C3) stood at 0.

With `C[C@H](c1ccccc1)n1cncc1C(=O)OCC[S+](C)[O-]` (stereo partly drawn) [Compound C10], the “Corticosterone as an indicator … of inhibition” value in data set [4] (H295R, Table C3) worked out at 0. The 50% effective concentration (EC50) in data set [4] and in data set [5] was over 10 µM throughout. Moreover, the “Cortisol as an indicator … of inhibition” value in data set [5] (H295R, Table C3) came to 0.

`CC(=O)C1(COC(=O)c2cncn2[C@H](C)c2ccccc2)CCC1` [Compound C11]: the “Corticosterone as an indicator … of inhibition” value in data set [4] (H295R, Table C3) was 0. Besides, the 50% effective concentration (EC50) in data set [4] and in data set [5] was over 1 µM throughout. The “Cortisol as an indicator … of inhibition” value in data set [5] (H295R, Table C3) is recorded as 0.

Consider `C[C@H](c1ccccc1)n1cncc1C(=O)OCC1(C=O)COC1` [Compound C12], for which the “Corticosterone as an indicator … of inhibition” value in data set [4] (H295R, Table C3) turned out to be 0. Further, the half-maximal effective concentration (EC50) in data set [4] and in data set [5] was over 1 µM each time. Also, in data set [5] (H295R, Table C3), the “Cortisol as an indicator … of inhibition” value came out at 0.

For the molecule `CC(=O)CC(C)(C)OC(=O)c1cncn1[C@H](C)c1ccccc1` [Compound C13], the “Corticosterone as an indicator … of inhibition” value in data set [4] (H295R, Table C3) worked out at 0. Also, the EC50 in data set [4] and in data set [5] was over 10 µM each time. In data set [5] (H295R, Table C3), the “Cortisol as an indicator … of inhibition” value was found to be 0.

On to `CC(=O)C(C)(C)SC(=O)c1cncn1[C@H](C)c1ccccc1` [Compound C22], for which the “recovery time of the test animals' righting reflex” value with rats [1] is given as 1.55 min; in the data set with rats [3] it was 93 s.

For the molecule `CC(=O)CCSC(=O)c1cncn1[C@H](C)c1ccccc1` [Compound C23], the “recovery time of the test animals' righting reflex” value is 3.43 min with rats [1] and 206 s in the data set with rats [3].

As to `C=C(OCC)C1(OC(=O)c2cncn2[C@H](C)c2ccccc2)COC1` [Compound D2], the “Corticosterone as an indicator … of inhibition” value in data set [4] (setting [6]) stood at 0. The EC50 in data set [4] and in data set [5] was over 1 µM each time. Also, the “Cortisol as an indicator … of inhibition” value in data set [5] (setting [6]) is given as 0. In addition, the “recovery time of the test animals' righting reflex” value with rats [1] is given as 5.92 min; in the data set with rats [3], 355 s.

Consider `C/C=C/C1(OC(=O)c2cncn2[C@H](C)c2ccccc2)CCC1` [Compound D20], for which, in data set [4] (setting [6]), the “Corticosterone as an indicator … of inhibition” value is reported as 0. Moreover, the EC50 in data set [4] and in data set [5] was over 10 µM each time. The “Cortisol as an indicator … of inhibition” value in data set [5] (setting [6]) worked out at 0.

Regarding `C=CC1(OC(=O)c2cncn2[C@H](C)c2ccccc2)CCCCC1` [Compound D35], the “Corticosterone as an indicator … of inhibition” value in data set [4] (setting [6]) turned out to be 0. Moreover, the concentration giving a half-maximal response (EC50) in data set [4] and in data set [5] was over 1 µM in each case. Moreover, in data set [5] (setting [6]), the “Cortisol as an indicator … of inhibition” value is reported as 0. For the same molecule, the “recovery time of the test animals' righting reflex” value with rats [1] stood at 3.33 min; with rats [3], 200 s.

`C=CCC1(OC(=O)c2cncn2[C@H](C)c2ccccc2)COC1` [Compound D41]: the “Corticosterone as an indicator … of inhibition” value in data set [4] (setting [6]) came out at 0. Besides, the EC50 in data set [4] and in data set [5] was over 10 µM each time. Also, the “Cortisol as an indicator … of inhibition” value in data set [5] (setting [6]) came to 0. The figures for the “recovery time of the test animals' righting reflex” value in the data set with rats [1] and in the data set on rats [3] were 5.92 min and 355 s, respectively.

Turning to `C[C@H](c1ccccc1)n1cnc(F)c1C(=O)OC1(C=C=S)CCCCC1` [Compound E23], the “recovery time of the test animals' righting reflex” value came to 1.53 min in the data set on rats [1] and 92 s in the data set with rats [3].

In the case of `COCC1(COC(=O)c2c(Cl)ncn2[C@H](C)c2ccccc2)CCC1` [Compound E102], the “Corticosterone as an indicator … of inhibition” value in data set [4] (setting [7]) is 0. Further, the 50% effective concentration (EC50) in data set [4] and in data set [5] was over 10 µM each time. The “Cortisol as an indicator … of inhibition” value in data set [5] (setting [7]) worked out at 0. Also, the “recovery time of the test animals' righting reflex” value in the data set on rats [1] was 4.80 min; with rats [3], 288 s.

Regarding `C=CC#CC(C)OC(=O)c1c(Cl)ncn1[C@H](C)c1ccccc1` (stereo partly drawn) [Compound E121], the figures for the “recovery time of the test animals' righting reflex” value with rats [1] and in the data set with rats [3] were 3.07 min and 184 s, respectively.

With `CC(C)c1cccc(C(C)C)c1O` [propofol, reference compound], the results for the “recovery time of the test animals' righting reflex” value in the data set on rats [1] and in the data set with rats [3] were 10.75 min and 645 s, respectively. Besides, the “effect on the circulatory function (MAP, HR)” value in the data set on rats [1] (rats, 2×ED50, 30 min after administration) is “significant inhibition of the circulatory function”.

These data come from patent publication US11434205B2, “Substituted imidazole carboxylate derivatives and the use thereof” (priority 2018, dated 2022).
